Laboratory results reported in US7763626B2, “Compositions and method for enhancing the therapeutic activity of opiods in treatment of pain” (Trustees of Dartmouth College, priority 2004, dated 2010).

Columns and labels:
Assay type in all cases: in vivo, rat
Male Sprague-Dawley rats [1] = test: Mechanical allodynia (von Frey filaments), morphine withdrawal
Procedure: (§1) Male Sprague-Dawley rats (175-200 grams, Harlan, Indianapolis, Ind.) were divided into two groups (n=8 per group). Rats received subcutaneous injections of either saline or morphine (10 mg/kg; Sigma, St. Louis, Mo.) twice daily at 0800 to 0900 and 1600-1700 hour for 5 days in order to induce opioid tolerance. Chronic morphine withdrawal-induced hyperalgesia and allodynia were assessed in the animals 16 hours after the last injection of morphine. Following the recording of morphine withdrawal-induced hyperalgesia and allodynia, animals were treated with morphine (5 microgram) acutely via lumbar intrathecal injection to study the expression of morphine tolerance. Acute analgesic activity or intrathecal morphine in morphine-tolerant and chronic aline-treated rats were evaluated by mechanical (Analgesy-Meter) and thermal (tail-flick) test paradigms. Behaviors recorded prior to the acute administration of intrathecal morphine served as the basal latency measures.
(§2) With an understanding of the effects of morphine alone, separate groups of rats (n=8) received with saline or morphine (10 mg/kg subcutaneously, twice daily for 5 days) and also received once daily injections (at 1100 to 1200 hour) of propentofylline (1 and 10 micrograms) or saline via direct lumbar puncture during the induction of morphine tolerance. Again, chronic morphine withdrawal-induced hyperalgesia and allodynia were assessed in the animals 16 hours after the last subcutaneous morphine injection. Following the recording of morphine withdrawal-induced hyperalgesia and allodynia, animals were treated with morphine (5 micrograms) acutely via lumbar puncture to study the expression of morphine tolerance. As before, the acute analgesic activity of intrathecal morphine in morphine-tolerant and saline-injected rats was evaluated by mechanical (Analgesy-Meter) and thermal (tail-flick) test paradigms. Behavior recorded prior to the acute administration of intrathecal morphine served as the basal latency.
Mechanical sensitivity was measured as the frequency of foot withdrawals elicited by a defined mechanical stimulus. Each rat, under unrestrained conditions, was placed beneath an inverted, ventilated Plexiglas cage upon an elevated aluminum screen surface with 1 cm mesh openings. Animals had been previously acclimated to the environment and the experimenter.
(§3) In blinded testing, rats were subjected to sequential series of 10 tactile stimulations to the dorsal surface of the ipsilateral hindpaw using […] von Frey filaments (Stoelting Co., WoodDale, Ill.) sequentially. The number of foot withdrawals to this normally non-noxious stimulus determined mechanical allodynia. Mechanical sensitivity was assessed by recording the total number of responses elicited during three successive trials separated by at least 10 minutes. The pressure required to elicit paw withdrawal, the paw pressure threshold was determined.

GFAP mRNA = test: Real-time PCR of GFAP mRNA at L5 lumbar spinal cord; conditions: compared to saline-treated controls; morphine 10 mg/kg twice daily 5 days, or propentofylline 10 micrograms intrathecally 5 days in saline-treated rats
Procedure: (§4) Total RNA was treated with DNase I (Ambion, Austin, Tex.) to remove DNA contamination before cDNA synthesis. The reverse transcription (RT) was carried out in a 100 μl total reaction volume containing RT buffer, dNTPs, multiscribe reverse transcriptase, RNase-free water and 10 μg of DNase-treated total RNA. The RT reaction was carried out at 25° C. for 10 minutes, 37° C. for 120 minutes, and 95° C. for 5 minutes. Real-time PCR analysis was performed using gene-specific primers and probes that were designed and blasted against GENBANK to confirm their species and gene specificity. […] The real-time PCR reactions were carried out using Platinum Taq DNA polymerase, 20 mM Tris HCl (pH 8.4), 50 mM KCl, 3 mM MgCl2, 200 μM dGTP, dCTP, and dATP, 400 μM of dUTP and 1 U uracyl DNA glycosylase (UDG), 900 nM forward and reverse primers, 300 nM TaqMan probe, and 10-fold dilution of cDNA (50 ng) from the RT step. Primers and probes for glyceraldehyde-3-phosphate (GADPH), GFAP and Mac-1 were obtained form Applied Biosystems (LaJolla, Calif.). The relative standard curves generated by plotting the threshold value versus the log of the amount of total cDNA added to the reaction (1-10000 pg) were used to compare the relative amount of target genes from control and chronic morphine-treated animals.

Male Sprague-Dawley rats [2] = test: Hot water tail-flick test, morphine withdrawal-induced thermal hyperalgesia
Procedure: as §1, §2
Thermal nociceptive thresholds were evaluated by the hot water tail-flick test that has been described previously (Bian, D. et al. 1999. Brain Res. 831:55-63). The test consisted of immersing the tail of the rats in water maintained at 49° C. and then recording the latency to a rapid flick. A 15 second cut-off time was used. Again, the total number of responses elicited during three successive trials separated by at least 10 minutes was recorded and then expressed as the % maximal possible effect. The tester was again blinded to the test groups.

IL-6 mRNA = test: RNase protection assay, cytokine mRNA at L5 lumbar spinal cord; conditions: ratio of expression compared with saline-treated animals (=1), propentofylline 10 μg intrathecally 5 days, morphine 10 mg/kg twice daily 5 days
Procedure: (§6) After behavioral testing for reactions to the combined treatment, rats were sacrificed and decapitated. An 18-gauge needle was inserted into the caudal end of the vertebral column and the spinal cord was expelled with ice-cold phosphate-buffered saline. The spinal cord was frozen immediately on dry ice and stored at −80° C. until homogenization. The L5 lumbar spinal cord was isolated from the intact frozen cord at the time of mRNA and protein quantification. Total RNA was isolated from the L5 spinal cord by the TRIzol extraction method (Invitrogen Corporation, Carlsbad, Calif).
(§7) Assessment of the temporal cytokine mRNA expression in the L5 lumber spinal cord was performed using a Ribonuclease Protection Assay technique. A Multiprobe RPAse kit was used (Pharmingen, San Diego, Calif.). Total RNA (15 μg) was hybridized to ^32P-labeled antisense RNA probes transcribed using the rat cytokine-1 (rCK-1) multiprobe template set resulting in double-stranded target RNA. After Rnase digestion, protected RNA and probe were resolved on a denaturing polyacrylamide gel and visualized by overnight autoradiography. Quantitative image analysis was employed to compare mRNA levels based on band intensities for each cytokine. The intensity of each band was measured using image analysis software and assigned an arbitrary unit based on the measured intensity levels. The value for the normalized quantity for each band was obtained by dividing by the L32 house-keeping gene control. Individual mRNA concentration was calculated as the ratio of the expression compared with saline-treated animals in which normal values were weighted as 1.

Mac-1 mRNA = test: Real-time PCR of Mac-1 mRNA at L5 lumbar spinal cord; conditions: compared to saline-treated controls; morphine 10 mg/kg twice daily 5 days, or propentofylline 10 micrograms intrathecally 5 days in saline-treated rats
Procedure: as §4

Male Sprague-Dawley rats [3] = test: Paw pressure test (Analgesy-Meter), morphine withdrawal-induced mechanical hyperalgesia
Procedure: as §1, §2, §3

Male Sprague-Dawley rats [4] = test: Morphine tolerance model, acute intrathecal morphine evaluated by thermal and mechanical test paradigms; conditions: chronic subcutaneous morphine 10 mg/kg twice daily for 5 days; noxious thermal and mechanical testing paradigms
Procedure: as §1
as §2, with “Following the recording of morphine withdrawal-induced hyperalgesia and allodynia, animals were treated with morphine (5 micrograms) acutely via lumbar puncture to study the expression of morphine tolerance.” left out
as §3
Thermal nociceptive thresholds were evaluated by the hot water tail-flick test that has been described previously (Bian, D. et al. 1999. Brain Res. 831:55-63). […] Again, the total number of responses elicited during three successive trials separated by at least 10 minutes was recorded and then expressed as the % maximal possible effect. […]

IL-1β protein = test: Cytokine protein estimation by ELISA at L5 spinal cord; conditions: ELISA, propentofylline 10 μg intrathecally 5 days, morphine 10 mg/kg twice daily 5 days
Procedure: (§5) Quantitative determination of IL-1β, TNF-α and IL-6 protein was performed on the L5 spinal cord of the rats. […] Briefly, weighed sections of L5 spinal cord were homogenized in a homogenization buffer consisting of a protease inhibitor using the a Power Gen 125 tissue tearer (Fisher Scientific, Suwanee, Ga.). Samples were spun at 20,000×g for 30 minutes at 4° C. Supernatant was aliquoted and stored at −80° C. for future protein quantification. IL-1β and TNF-α (R&D Systems, Minneapolis, Minn.) and IL-6 (Biosource, Camarillo, Calif.) protein concentrations were determined utilizing the quantitative sandwich enzyme immunoassay.

IL-6 protein = test: as above; conditions: ELISA, propentofylline 10 μg intrathecally 5 days, morphine 10 mg/kg twice daily 5 days
Procedure: as §5

TNF-α protein = test: as above; conditions: ELISA, propentofylline 10 μg intrathecally 5 days, morphine 10 mg/kg twice daily 5 days
Procedure: as §5

IL-1β mRNA = test: RNase protection assay, cytokine mRNA at L5 lumbar spinal cord; conditions: ratio of expression compared with saline-treated animals (=1), propentofylline 10 μg intrathecally 5 days, morphine 10 mg/kg twice daily 5 days
Procedure: as §6, §7

[5] = 16 hours after last morphine injection (10 mg/kg s.c. twice daily 5 days), propentofylline 1 and 10 micrograms intrathecally for 5 days during induction of tolerance
[6] = 16 hours after last injection, morphine 10 mg/kg s.c. twice daily 5 days and/or propentofylline 10 micrograms intrathecally once daily 5 days

SMILES: CN1CC[C@]23c4c5ccc(O)c4O[C@H]2[C@@H](O)C=C[C@H]3[C@H]1C5 [morphine]
- morphine withdrawal-induced mechanical allodynia (Male Sprague-Dawley rats [1]; [5]): led to withdrawal-induced thermal and mechanical hyperalgesia and mechanical allodynia
- Mechanical allodynia (2 grams) (Male Sprague-Dawley rats [1]; number of foot withdrawals, 2 grams von Frey filament, morphine 10 mg/kg s.c. twice daily 5 days and/or propentofylline 10 micrograms intrathecally): 3.9 ± 0.5
- Mechanical allodynia (12 grams) (Male Sprague-Dawley rats [1]; number of foot withdrawals, 12 grams von Frey filament, morphine 10 mg/kg s.c. twice daily 5 days and/or propentofylline 10 micrograms intrathecally): 6.9 ± 0.7
- GFAP mRNA levels at the L5 lumbar spinal cord (GFAP mRNA): significant increases
- Tail-flick latency (Male Sprague-Dawley rats [2]; [6]): 3.7 ± 0.2 s
- morphine withdrawal-induced noxious thermal hyperalgesia (Male Sprague-Dawley rats [2]; [5]): led to withdrawal-induced thermal and mechanical hyperalgesia
- IL-6 mRNA at the L5 lumbar spinal cord (IL-6 mRNA): significantly increased
- IL-6 mRNA at the L5 lumbar spinal cord (IL-6 mRNA; listed as Morphine): 1.85 ± 0.16
- Mac-1 mRNA levels at the L5 lumbar spinal cord (Mac-1 mRNA): significant increases
- Paw pressure latency (Male Sprague-Dawley rats [3]; [6]): 69.8 ± 4.8 grams
- morphine withdrawal-induced mechanical hyperalgesia (Male Sprague-Dawley rats [3]; [5]): led to withdrawal-induced thermal and mechanical hyperalgesia
- anti-nociceptive tolerance to acute intrathecal morphine (5 micrograms) (Male Sprague-Dawley rats [4]): demonstrated anti-nociceptive tolerance
- IL-1β protein level at the L5 lumbar spinal cord (IL-1β protein): significantly increased
- IL-1β protein level at the L5 lumbar spinal cord (IL-1β protein; listed as Morphine): 73.5 ± 9.2
- IL-6 protein level at the L5 lumbar spinal cord (IL-6 protein): significantly increased
- IL-6 protein level at the L5 lumbar spinal cord (IL-6 protein; listed as Morphine): 359 ± 62.4
- TNF-α protein level at the L5 lumbar spinal cord (TNF-α protein): not significantly increased
- TNF-α protein level at the L5 lumbar spinal cord (TNF-α protein; listed as Morphine): 36.6 ± 5.6
- IL-1β mRNA at the L5 lumbar spinal cord (IL-1β mRNA): significantly increased
- IL-1β mRNA at the L5 lumbar spinal cord (IL-1β mRNA; listed as Morphine): 1.92 ± 0.14
